According to patent US20120263848A1, “Organic Compounds” (priority 2009, published 2012):
Entries after “also recorded” stand apart in the source; their conditions may differ.

Tests used:
Type in all cases: in vivo
[1] = tested on: sweet sensitive panelists; experiment: Sweet enhancement in a cola beverage application (7% sucrose cola, R-index ranking)
Procedure: A 1% ethanol solution of N-cycloheptyl-2-methylindoline-1-carboxamide was added into a 7% sucrose containing cola solution. […] To determine its isointensity a panel of trained experts was then asked to evaluate the taste (in particularly the sweet taste) of this sample solution in comparison to sample cola solutions containing 7%, 8%, 9% and 10% sucrose but no N-cycloheptyl-2-methylindoline-1-carboxamide. Panel testing was carried out in the following way: Twenty milliliters of each of the sample solutions was presented blind and in random order to 20 sweet sensitive panelists. In two replications (over 1 session), panelists were asked to rank the solutions from least sweet to most sweet. The data was then subjected to an R-index analysis as described in example 15.

[2] = tested on: sweet sensitive panelists; experiment: Isointensity measurement in water against sucrose solutions (R-index ranking)
Procedure: A 1% solution of N-cycloheptyl-2-methylindoline-1-carboxamide was prepared in ethanol. This 1% solution was then further diluted, using water, to create a 5 ppm sample solution of N-cycloheptyl-2-methylindoline-1-carboxamide. To determine the isointensity of this solution a panel of trained experts was then asked to evaluate the taste (in particularly the sweet taste) of this sample solution in comparison to 0.5%, 1% and 1.5% sample sucrose solutions. Panel testing was carried out in the following way: Twenty milliliters of each of the samples was presented blind and in counter balanced order following a William's Latin square design, to 20 sweet sensitive panelists. In two replications (over 1 session), panelists were asked to taste and rank the solutions from least sweet to most sweet. […] A 1% solution of (R)-N-cyclooctyl-2-methylindoline-1-carboxamide was prepared in ethanol. This 1% solution was then further diluted, using water, to create a 2 ppm sample solution of (R)-N-cyclooctyl-2-methylindoline-1-carboxamide. To determine the isointensity of this solution a panel of trained experts was then asked to evaluate the taste (in particularly the sweet taste) of this sample solution in comparison to 0.5%, 1% and 1.5% sample sucrose solutions. Panel testing was carried out in the following way: Twenty milliliters of each of the samples was presented blind and in counter balanced order following a William's Latin square design, to 20 sweet sensitive panelists. In two replications (over 1 session), panelists were asked to taste and rank the solutions from least sweet to most sweet.

[3] = tested on: panel of trained experts; experiment: Taste evaluation of diluted sample solutions by a panel of trained experts; conditions: for taste of sample solutions (inherent sweetness): 1% ethanol solutions diluted with water to differing ppm concentrations; for effectiveness at creating modifying, or enhancing the sweet flavour of compositions and consumable products: general statement of the applicant
Procedure: 1% solutions of compounds of formula (I) were prepared in ethanol. These 1% solutions were then further diluted, using water, to create sample solutions of differing ppm concentrations. A panel of trained experts was then asked to evaluate the taste of each sample solution and to comment on any inherent sweetness, other perceived taste, or flavor attributes. After tasting each sample the experts rinsed their mouths with water and a break was observed until the stimulus disappeared. […]

[4] = tested on: sweet sensitive panelists; experiment: Sweet enhancement in 7% sucrose (aqueous solution, R-index ranking)
Procedure: A 1% ethanol solution of (R)-N-cyclooctyl-2-methylindoline-1-carboxamide was added into an aqueous 7% sucrose solution. […] To determine its isointensity a panel of trained experts was then asked to evaluate the taste (in particularly the sweet taste) of this sample solution in comparison to aqueous sample solutions containing 7%, 8%, 9% and 10% sucrose, but without added (R)-N-cyclooctyl-2-methylindoline-1-carboxamide. Panel testing was carried out in the following way: Twenty milliliters of each of the sample solutions was presented blind and in random order to 20 sweet sensitive panelists. In two replications (over 1 session), panelists were asked to rank the solutions from least sweet to most sweet. The data was then subjected to an R-index analysis as described in example 5.

[5] = 7% sugar cola + 5 ppm vs. 7% sugar
[6] = 7% sugar cola + 5 ppm vs. 8% sugar
[7] = 7% sugar cola + 5 ppm vs. 9% sugar
[8] = 7% sugar cola + 5 ppm vs. 10% sugar
[9] = 5 ppm in water vs. 0.5% sucrose solution
[10] = 5 ppm in water vs. 1.0% sucrose solution
[11] = 5 ppm in water vs. 1.5% sucrose solution
[12] = 2 ppm in water vs. 0.5% sucrose solution
[13] = 2 ppm in water vs. 1.0% sucrose solution
[14] = 2 ppm in water vs. 1.5% sucrose solution

For CC1Cc2ccccc2N1C(=O)NC1CCCCCC1 (centres unmarked) [Example 2, N-cycloheptyl-2-methylindoline-1-carboxamide], the sweetness enhancer behaviour ([1]; 5 ppm in 7% sucrose cola, iso sweet with 8% instead of expected 7.5% sucrose) was “behaving as a sweetness enhancer”, the “Experimental Compound Sweetness” value [1, 5] was “significantly more sweet” and the R-index [1, 5] was 37.72. For the same compound, the “Significantly different (p < 0.05)” value [1, 5] was “Yes”, the “Experimental Compound Sweetness” value [1, 6] was “Iso sweet” and the R-index [1, 6] was 40.03. For the same compound, the “Significantly different (p < 0.05)” value [1, 6] was “No”, the “Experimental Compound Sweetness” value [1, 7] was “significantly less sweet” and the R-index [1, 7] was 68.97. For the same compound, the “Significantly different (p < 0.05)” value [1, 7] was “Yes”, the “Experimental Compound Sweetness” value [1, 8] was “significantly less sweet” and the R-index [1, 8] was 90.78. For the same compound, the “Significantly different (p < 0.05)” value [1, 8] was “Yes”, the “Experimental Compound Sweetness” value [2, 9] was “Iso-sweet; also recorded: iso sweet” and the R-index [2, 9] was 39.38. The “Significantly different (p < 0.05)” value [2, 9] was “No”, the “Experimental Compound Sweetness” value [2, 10] was “significantly less sweet” and the R-index [2, 10] was 78.63. For the same compound, the “Significantly different (p < 0.05)” value [2, 10] was “Yes”, the “Experimental Compound Sweetness” value [2, 11] was “significantly less sweet” and the R-index [2, 11] was 92.00. The “Significantly different (p < 0.05)” value [2, 11] was “Yes”.

C[C@@H]1Cc2ccccc2N1C(=O)NC1CCCCCC1 [Example 18, (R)-N-cycloheptyl-2-methylindoline-1-carboxamide] was tested, and the “taste of sample solutions (inherent sweetness)” value [3] was “sweet” and the “effectiveness at creating modifying, or enhancing the sweet flavour of compositions and consumable products” value [3] was “particularly effective”.

C[C@@H]1Cc2ccccc2N1C(=O)NC1CCCCCCC1 [Example 20, (R)-N-cyclooctyl-2-methylindoline-1-carboxamide] was tested, and the sweetness enhancer behaviour ([4]; 2 ppm in 7% sucrose, iso sweet with 8% sucrose, expected less sweet than 8%) was “behaving as a sweetness enhancer”, the “Experimental Compound Sweetness” value ([4]; 7% sugar + 2 ppm vs. 7% sugar) was “significantly more sweet” and the R-index ([4]; 7% sugar + 2 ppm vs. 7% sugar) was 35.53. For the same compound, the “Significantly different (p < 0.05)” value ([4]; 7% sugar + 2 ppm vs. 7% sugar) was “Yes”, the “Experimental Compound Sweetness” value ([4]; 7% sugar + 2 ppm vs. 8% sugar) was “Iso sweet” and the R-index ([4]; 7% sugar + 2 ppm vs. 8% sugar) was 61.44. The “Significantly different (p < 0.05)” value ([4]; 7% sugar + 2 ppm vs. 8% sugar) was “No”, the “Experimental Compound Sweetness” value ([4]; 7% sugar + 2 ppm vs. 9% sugar) was “significantly less sweet” and the R-index ([4]; 7% sugar + 2 ppm vs. 9% sugar) was 77.09. For the same compound, the “Significantly different (p < 0.05)” value ([4]; 7% sugar + 2 ppm vs. 9% sugar) was “Yes”, the “Experimental Compound Sweetness” value ([4]; 7% sugar + 2 ppm vs. 10% sugar) was “significantly less sweet” and the R-index ([4]; 7% sugar + 2 ppm vs. 10% sugar) was 88.44. The “Significantly different (p < 0.05)” value ([4]; 7% sugar + 2 ppm vs. 10% sugar) was “Yes”, the R-index [2, 12] was 27.00 and the “Significantly different (p < 0.05)” value [2, 12] was “Yes”. For the same compound, the “Experimental Compound Sweetness” value [2, 13] was “significantly less sweet”, the R-index [2, 13] was 72.31 and the “Significantly different (p < 0.05)” value [2, 13] was “Yes”. For the same compound, the “Experimental Compound Sweetness” value [2, 14] was “significantly less sweet”, the R-index [2, 14] was 99.13 and the “Significantly different (p < 0.05)” value [2, 14] was “Yes”. For the same compound, the “taste of sample solutions (inherent sweetness)” value [3] was “sweet” and the “effectiveness at creating modifying, or enhancing the sweet flavour of compositions and consumable products” value [3] was “particularly effective”.
